Test results as given in BindingDB's records for doi:10.1021/jm00164a002 (Syntex Research, 1990).

Biological target: T1, Neutrophil elastase (Homo sapiens, UniProt P08246)
T1 sequence (P08246 whole entry): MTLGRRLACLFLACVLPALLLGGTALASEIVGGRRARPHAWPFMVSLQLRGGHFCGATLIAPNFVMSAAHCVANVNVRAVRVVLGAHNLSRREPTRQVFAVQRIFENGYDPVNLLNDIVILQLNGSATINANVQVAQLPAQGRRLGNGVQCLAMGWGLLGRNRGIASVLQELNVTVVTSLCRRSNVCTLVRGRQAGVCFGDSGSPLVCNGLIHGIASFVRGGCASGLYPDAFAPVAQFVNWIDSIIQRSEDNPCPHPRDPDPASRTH
Assay: Component deacylation rate constant for interaction with human leukocyte elastase
Conditions: for kon: read-out: kon (M-1-s-1)

| SMILES | koff | kon | Ki |
| --- | --- | --- | --- |
| CCSc1nc2cccc(C)c2c(=O)o1 | 0.00141 s⁻¹ | 1.51e+06 M⁻¹ s⁻¹ | – |
| COC(=O)[C@@H](CC(C)C)Nc1nc2ccccc2c(=O)o1 | 0.00138 s⁻¹ | 39800 M⁻¹ s⁻¹ | 39.8 nM |
| COC(=O)[C@H](CC(C)C)Nc1nc2ccccc2c(=O)o1 | 0.000389 s⁻¹ | 2290 M⁻¹ s⁻¹ | 159 nM |
| COc1cc2nc(SCc3c[nH]cn3)oc(=O)c2cc1OC | 0.00759 s⁻¹ | 6920 M⁻¹ s⁻¹ | 1000 nM |
| O=c1oc(/C=C/c2ccccc2)nc2ccccc12 | 0.00316 s⁻¹ | 389 M⁻¹ s⁻¹ | – |
| COc1cc(C)c2c(=O)oc(NC(C)C)nc2c1 | 0.000794 s⁻¹ | 20900 M⁻¹ s⁻¹ | – |
| CC(C)C[C@H](NC(=O)C1CCCN1c1nc2ccccc2c(=O)o1)C(N)=O (some centres not stated) | 0.000324 s⁻¹ | 15100 M⁻¹ s⁻¹ | – |
| Cc1cc(N)cc2nc(NC(C)C)oc(=O)c12 | 1.78e-05 s⁻¹ | 229 M⁻¹ s⁻¹ | – |
| COC(=O)[C@H](Cc1ccc(O)cc1)Nc1nc2ccccc2c(=O)o1 | 0.000851 s⁻¹ | 1900 M⁻¹ s⁻¹ | – |
| Cc1cc(C)c2c(=O)oc(NC(C)C)nc2c1 | 1.51e-05 s⁻¹ | 2570 M⁻¹ s⁻¹ | 6.31 nM |
| CCC(C)CNc1nc2cccc(C)c2c(=O)o1 (configuration not stated) | 7.41e-05 s⁻¹ | 112 M⁻¹ s⁻¹ | – |
| CC(C)C[C@H](NC(=O)[C@@H]1CCCN1c1nc2ccccc2c(=O)o1)C(=O)NCC(N)=O | 0.000229 s⁻¹ | 11000 M⁻¹ s⁻¹ | – |
| CCc1cccc2c(=O)oc(NC(C)C)nc12 | 0.024 s⁻¹ | 24000 M⁻¹ s⁻¹ | – |
| CCSc1nc2cc(OC)c(OC)cc2c(=O)o1 | – | 100000 M⁻¹ s⁻¹ | – |
| Cc1cccc2nc(OCC(C)C)oc(=O)c12 | 1.12e-05 s⁻¹ | 7080 M⁻¹ s⁻¹ | – |
| Cc1cccc2nc(C(F)(F)F)oc(=O)c12 | 0.00371 s⁻¹ | 129000 M⁻¹ s⁻¹ | 31.6 nM |
| CCCCNc1nc2cc(N)ccc2c(=O)o1 | 0.00182 s⁻¹ | 2820 M⁻¹ s⁻¹ | – |
| CCOc1nc2cc(N(C)C)ccc2c(=O)o1 | 1.41e-05 s⁻¹ | 2880 M⁻¹ s⁻¹ | – |
| COc1cc2nc(SCc3ccccc3)oc(=O)c2cc1OC | 0.0123 s⁻¹ | 5750 M⁻¹ s⁻¹ | 2000 nM |

| SMILES | koff | kon | Ki |
| --- | --- | --- | --- |
| CCCC(C)Nc1nc2cccc(C)c2c(=O)o1 (configuration not stated) | 0.00371 s⁻¹ | 5010 M⁻¹ s⁻¹ | 794 nM |
| CC(C)Cc1nc2ccccc2c(=O)o1 | – | 20000 M⁻¹ s⁻¹ | – |
| C/C=C/c1cccc2nc(OCC)oc(=O)c12 | 6.61e-05 s⁻¹ | 347000 M⁻¹ s⁻¹ | – |
| CCSc1nc2c(C)cccc2c(=O)o1 | – | 2e+06 M⁻¹ s⁻¹ | – |
| CCCc1cccc2nc(OCC)oc(=O)c12 | 7.08e-05 s⁻¹ | 309000 M⁻¹ s⁻¹ | – |
| O=c1oc(C(F)(F)F)nc2ccccc12 | – | 100000 M⁻¹ s⁻¹ | 159 nM |
| CCOc1nc2cccc(C(Br)Br)c2c(=O)o1 | 0.00468 s⁻¹ | 1e+07 M⁻¹ s⁻¹ | – |
| CCCNC(=O)Nc1ccc2c(=O)oc(NC(C)C)nc2c1 | 0.017 s⁻¹ | 12600 M⁻¹ s⁻¹ | – |
| CCC(CC)Nc1nc2cccc(C)c2c(=O)o1 | 0.00562 s⁻¹ | 7760 M⁻¹ s⁻¹ | 794 nM |
| CCSc1nc2ccc(C)cc2c(=O)o1 | – | 1e+06 M⁻¹ s⁻¹ | 159 nM |
| Cc1cc(N(C)C)cc2nc(NC(C)C)oc(=O)c12 | 0.000129 s⁻¹ | 102 M⁻¹ s⁻¹ | – |
| NC(=O)[C@H](Cc1ccccc1)NC(=O)[C@@H]1CCCN1c1nc2ccccc2c(=O)o1 | 0.000537 s⁻¹ | 14400 M⁻¹ s⁻¹ | 39.8 nM |
| O=c1oc(NCCc2ccccc2)nc2ccccc12 | 0.00191 s⁻¹ | 1120 M⁻¹ s⁻¹ | 1590 nM |
| CSc1nc2cccc(C)c2c(=O)o1 | 0.000355 s⁻¹ | 251000 M⁻¹ s⁻¹ | – |
| CC(C)Nc1nc2cc(N(C)C)ccc2c(=O)o1 | 0.000479 s⁻¹ | 1000 M⁻¹ s⁻¹ | – |
| CCOC(=O)[C@H](C)Nc1nc2ccccc2c(=O)o1 | 0.00224 s⁻¹ | 2570 M⁻¹ s⁻¹ | 794 nM |
| CC(C)(C)c1nc2ccccc2c(=O)o1 | – | 10000 M⁻¹ s⁻¹ | – |
| CC(C)CN(CC(C)C)c1nc2ccccc2c(=O)o1 | 0.000977 s⁻¹ | 151 M⁻¹ s⁻¹ | – |
| Cc1nc2c(N)cccc2c(=O)o1 | – | 2000 M⁻¹ s⁻¹ | – |

| SMILES | koff | kon | Ki |
| --- | --- | --- | --- |
| CC(=O)NCc1nc2ccccc2c(=O)o1 | 0.00132 s⁻¹ | 174 M⁻¹ s⁻¹ | – |
| O=c1oc(C(F)(F)C(F)(F)C(F)(F)F)nc2ccccc12 | – | 10000 M⁻¹ s⁻¹ | 100 nM |
| NC(=O)[C@H](Cc1ccccc1)Nc1nc2ccccc2c(=O)o1 | 0.00038 s⁻¹ | 1200 M⁻¹ s⁻¹ | – |
| COC(=O)[C@H](CC(C)C)NC(=O)[C@H](CC(C)C)Nc1nc2cc(C)cc(C)c2c(=O)o1 | – | 1260 M⁻¹ s⁻¹ | – |
| CCCCN(CCCC)c1nc2ccccc2c(=O)o1 | 0.00123 s⁻¹ | 269 M⁻¹ s⁻¹ | 5010 nM |
| CCCc1cc(N(C)C)cc2nc(NC(C)C)oc(=O)c12 | 0.000182 s⁻¹ | 646 M⁻¹ s⁻¹ | – |
| CCSc1nc2ccc(NC(C)=O)cc2c(=O)o1 | – | 10000 M⁻¹ s⁻¹ | 1590 nM |
| Cc1cccc2c(=O)oc(NC(C)C)nc12 | – | – | 631 nM |
| Cc1ccc2nc(C)oc(=O)c2c1 | – | – | 31600 nM |
| O=c1oc(C(F)(F)C(F)(F)F)nc2ccccc12 | – | – | 100 nM |
| CCCCNc1nc2cccc(CC)c2c(=O)o1 [2-Butylamino-5-ethyl-benzo[d][1,3]oxazin-4-one] | 0.000537 s⁻¹ | 129000 M⁻¹ s⁻¹ | – |
| CCCCNc1nc2ccccc2c(=O)o1 [2-Butylamino-benzo[d][1,3]oxazin-4-one] | – | – | 79.4 nM |
| Cc1cccc2nc(NC(C)C)oc(=O)c12 [2-Isopropylamino-5-methyl-benzo[d][1,3]oxazin-4-one] | – | – | 1.58 nM |
| CC(C)Nc1nc2ccccc2c(=O)o1 [2-Isopropylamino-benzo[d][1,3]oxazin-4-one] | 0.00309 s⁻¹ | 58900 M⁻¹ s⁻¹ | – |
| O=c1oc(-c2ccccc2)nc2ccccc12 [2-Phenyl-4H-3,1-benzoxazin-4-one (3)] | – | 10000 M⁻¹ s⁻¹ | – |
| CCCNc1nc2ccccc2c(=O)o1 [2-Propylamino-benzo[d][1,3]oxazin-4-one] | – | – | 100 nM |
| CNc1nc2cccc(C)c2c(=O)o1 [5-Methyl-2-methylamino-benzo[d][1,3]oxazin-4-one] | 0.151 s⁻¹ | 4900 M⁻¹ s⁻¹ | – |
| CCCNc1nc2cccc(C)c2c(=O)o1 [5-Methyl-2-propylamino-benzo[d][1,3]oxazin-4-one] | 0.000339 s⁻¹ | 56200 M⁻¹ s⁻¹ | 6.31 nM |
